Assay results published in PubChem BioAssay AID2060511 (Molecular Pharmacology Branch, DTP, NCI, 2025).

System: 422866-222-R5-J1-PDC spheroids with HUVEC/MSC, viability
Experiment: Anticancer human tumor 422866-222-R5-J1-PDC patient-derived pancreatic adenocarcinoma cell line growth inhibition [GQUAD]
Conditions: for IC50: curve of first compound; for viability, T/C: stronger effect = lower value; active = viability on the fitted dose curve at most 10% of control; inactive = the rest
Source text: DNA G-quadruplex Stabilizer Agents in Combinations in Complex Spheroids
A high-throughput screen of multi-cell type tumor spheroids was designed to identify active combinations of DNA G-quadruplex stabilizer agents and targeted small molecules. Complex spheroids include a stromal component modeled by human endothelial cells (HUVEC) and fibroblasts modeled by human mesenchymal stem cells (MSCs). The concentration ranges selected for each drug and investigational agent were based upon clinically achievable concentrations if the clinical Cmax of the agent was known.
Compounds. The drugs and investigational agents: pidnarulex (CX-5461; NSC782164), APTO-253 (NSC789042), BRACO-19 (NSC847499), peposertib (NSC802822), ceralasertib (NSC780249), elimusertib (NSC800525), camonsertib (NSC841442), AZD-1390 (NSC803789), olaparib (NSC753686), talazoparib (NSC767125), ART-558 (NSC835418), sotorasib (NSC818433), MRTX-1133 (NSC836407), SN-38 (NSC673596), topotecan (NSC609699), etoposide (NSC141540), doxorubicin (NSC123127), gemcitabine (NSC613327), 5-fluorouracil (NSC19893), paclitaxel (NSC125973), vemurafenib (NSC761431), panobinostat (NSC761190), R-306465 (JNJ-16241199; NSC773264), adavosertib (NSC754352), TP-3654 (NSC805149), carboplatin (NSC241240), KSQ-4279 (NSC840948), and staurosporine (NSC755774) were obtained from the National Cancer Institute (NCI) Developmental Therapeutics Program Chemical Repository (34). The FDA-approved anticancer drug set is available from the NCI Developmental Therapeutics Program. […] The stock solutions were prepared in dimethyl sulfoxide (DMSO, Sigma-Aldrich, St. Louis, MO, cat. D2650) at 800-fold the tested concentration and stored at -70 degrees C prior to their use. All drugs and investigational agents were tested over a range starting from a high concentration at or near the clinical Cmax and decreasing in half-log increments. If the clinical Cmax for an agent had not been determined, the highest concentration tested was 10 microM.
2.3 Cell Culture. All cells were maintained in an incubator at 37 degrees C and 5% CO2 with 95% humidity. The PDC lines were cultured according to standard operating procedures established by the NCI PDMR. All PDCs were thawed and cultured in Matrigel-coated flasks prepared with a working solution of 1X Ham's F-12 nutrient mix, without supplementation (Invitrogen, cat. 11765054), 100 U/mL penicillin-streptomycin (Invitrogen, cat. 15140122), and 2.5% Matrigel (Corning Inc., cat. 354248) for the first three passages. The 857933-349-R-J2-PDC line was cultured in 6C/Colon 1B media, which includes advanced DMEM/F-12 (Thermo Fisher Scientific, cat. 12634028), 10 mM HEPES (Thermo Fisher Scientific, cat. 15630080), 1X GlutaMAX supplement (Thermo Fisher Scientific, cat. 35050061), 0.1 mg/mL primocin (InvivoGen, cat. ant-pm-2), 10% defined fetal bovine serum, heat inactivated (HyClone Laboratories Inc., cat. SH30070.03HI), 50% L-WRN conditioned media (ATCC, cat. CRL-3276), 1.25 mM N-Acetyl-L-cysteine (Sigma-Aldrich, cat. A9165), 10 mM nicotinamide (Sigma-Aldrich, cat. N0636), 1X B-27 supplement (Thermo Fisher Scientific, cat. 17504044), 1X N-2 supplement (Thermo Fisher Scientific, cat. 17502048), 10 microM Y-27632 dihydrochloride (Tocris Bioscience, cat. 1254), and 50 ng/mL human EGF recombinant protein (Thermo Fisher Scientific, cat. PHG0311). The 485176-168-R4-J1-PDC line was cultured in Panc media, which includes all 6C/Colon 1B media components plus 100 ng/mL human FGF-10 (Thermo Fisher Scientific, cat. 100-26), 500 nM SB-431542 (Selleckchem, cat. S1067), and gastrin (Tocris, cat. 3006).
[…]
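Also: spheroids exposed to compounds for seven days before reading.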
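For viability, T/C in this document: percent viability relative to DMSO vehicle control taken as 100%.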

COc1ncnc(C2CC2)c1-c1ncc2cnn(Cc3ccc(-c4nc(C(F)(F)F)cn4C(C)C)cc3)c2n1 + Cc1cnc(CNC(=O)c2c(=O)c3ccc(N4CCCN(C)CC4)nc3n3c2sc2ccccc23)cn1
inactive: viability, T/C (second compound 0.0316 µM, first compound 0.0316 µM) 86.6% | viability, T/C (second compound 0.0316 µM, first compound 0.1 µM) 79.2% | viability, T/C (second compound 0.0316 µM, first compound 0.316 µM) 84.4% | viability, T/C (second compound 0.0316 µM, first compound 1 µM) 74.3% | viability, T/C (second compound 0.0316 µM, first compound 3.16 µM) 91.5% | viability, T/C (second compound 0.0316 µM, first compound 10 µM) 93.6% | viability, T/C (second compound 0.1 µM, first compound 0.0316 µM) 99.4% | viability, T/C (second compound 0.1 µM, first compound 0.1 µM) 74.7% | viability, T/C (second compound 0.1 µM, first compound 0.316 µM) 82.9% | viability, T/C (second compound 0.1 µM, first compound 1 µM) 88.8% | viability, T/C (second compound 0.1 µM, first compound 3.16 µM) 101% | viability, T/C (second compound 0.1 µM, first compound 10 µM) 86.5% | viability, T/C (second compound 0.316 µM, first compound 0.0316 µM) 84.4% | viability, T/C (second compound 0.316 µM, first compound 0.1 µM) 72.4% | viability, T/C (second compound 0.316 µM, first compound 0.316 µM) 78.8% | viability, T/C (second compound 0.316 µM, first compound 1 µM) 80.4% | viability, T/C (second compound 0.316 µM, first compound 3.16 µM) 93.2% | viability, T/C (second compound 0.316 µM, first compound 10 µM) 94% | viability, T/C (second compound 1 µM, first compound 0.0316 µM) 63% | viability, T/C (second compound 1 µM, first compound 0.1 µM) 80.1% | viability, T/C (second compound 1 µM, first compound 0.316 µM) 84.3% | viability, T/C (second compound 1 µM, first compound 1 µM) 85.4% | viability, T/C (second compound 1 µM, first compound 3.16 µM) 82.3% | viability, T/C (second compound 1 µM, first compound 10 µM) 98.8% | viability, T/C (second compound 3.16 µM, first compound 0.0316 µM) 71.8% | viability, T/C (second compound 3.16 µM, first compound 0.1 µM) 80.4% | viability, T/C (second compound 3.16 µM, first compound 0.316 µM) 82.7% | viability, T/C (second compound 3.16 µM, first compound 1 µM) 71.9% | viability, T/C (second compound 3.16 µM, first compound 3.16 µM) 98.1% | viability, T/C (second compound 3.16 µM, first compound 10 µM) 98% | viability, T/C (second compound 10 µM, first compound 0.0316 µM) 70.3% | viability, T/C (second compound 10 µM, first compound 0.1 µM) 80.7% | viability, T/C (second compound 10 µM, first compound 0.316 µM) 88.6% | viability, T/C (second compound 10 µM, first compound 1 µM) 72.8% | viability, T/C (second compound 10 µM, first compound 3.16 µM) 84.7% | viability, T/C (second compound 10 µM, first compound 10 µM) 88.2%
> 10 µM: IC50 (second compound 0.0316 µM) | IC50 (second compound 0.1 µM) | IC50 (second compound 0.316 µM) | IC50 (second compound 1 µM) | IC50 (second compound 3.16 µM) | IC50 (second compound 10 µM)
